What all share (format): cell-based, rat
Experiment [1] concerns atrial and ventricular fibroblasts. Briefly: Cardiac fibroblast proliferation (cell counts and [3H]-thymidine incorporation). Particulars: for increase in fibroblast proliferation: 3 days; for increase in atrial and ventricular fibroblast proliferation: 72 h. As to the method: The ability of rhRLX to modulate cardiac fibroblast proliferation was investigated in the absence or presence of Ang II and IGF-I, which both potently stimulate fibroblast proliferation. Cardiac fibroblasts were plated at an equal density of 10^4 cells/96-well plate in DMEM-FBS. Twenty-four hours later, media were changed to DMEM supplemented with lactalbumin hydrolysate, and cells were labelled with [^3H]-thymidine (3 μCi/ml) in the presence of rhRLX (100 ng/ml) alone or in combination with IGF-I (0.1 μg/ml, 0.5 μg/ml, and 1 μg/ml) or Ang II (10^−8 M and 10^−7 M) for 72 hours. [^3H]-thymidine incorporation and cell counts, using a hemocytometer, were evaluated.

Experiment [2] has as its system MMP-2. Put plainly: Gelatin zymography of conditioned media, MMP-2 expression. Conditions: TGF-β 2 ng/ml alone, 72 h. As for the experimental part: The effects of rhRLX on MMP expression, were determined using gelatin zymography of conditioned media, performed as previously described (Talhouk R S et al. (1991) 112:439-449). Briefly, the neonatal cardiac cells (1×10^5/cm^2) were treated with either TGF-β (2 ng/ml) or Ang II (10^−7 M) in the absence or presence of rhRLX (100 ng/ml) for 72 h; the final 24 hours of treatment were under serum-free conditions. Equal aliquots of the collected media were then analyzed on zymogram gels consisting of 7.5% acrylamide and 1 mg/ml gelatin, and the gels were subsequently treated as previously detailed (Talhouk R S, supra).

The test system of experiment [3] is atrial and ventricular fibroblasts. Briefly: Collagen deposition into the cell matrix (hydroxyproline content of cell layers). Conditions: stimulus alone, 72 h. As for the experimental part: (§1) Distribution of relaxin and LGR7 expression was determined in atrial myocytes and fibroblasts, ventricular myocytes and fibroblasts, and vascular smooth muscle cells (VSMC). These cells were obtained from neonate rats using standard collagenase digestion methods. Neonate (1 day old) Sprague Dawley rats were used for tissue collection and subsequent cardiac cell isolation and preparation. The cells were maintained in DMEM supplemented with 10% fetal calf serum, penicillin (50 U/ml), and streptomycin (50 μg/ml) (DMEM-FBS). Cardiac fibroblast isolation from myocytes and subsequent preparation were performed as described previously (Gray M O et al. (1998) Cardiovasc Res 40:352-363). These preparations contained more than 95% cardiac fibroblasts as determined by morphological appearance and immunocytochemical staining. Fibroblasts were used between passages 2 and 4 for all studies.
Fibroblasts were also plated at 5/mm^2 and grown for 7 days in the absence or presence of rhRLX (100 ng/ml). […]
Collagen content of cell layers from untreated fibroblasts and cells treated with rhRLX (100 ng/ml) alone, TGF-β (2 ng/ml) alone, or TGF-β (2 ng/ml) and rhRLX (100 ng/ml) was measured after 72 hours of culture. The collagen content of cell layers from untreated atrial fibroblasts and cells treated with Ang II (10^−7 M) alone or Ang II (10^−7 M) and rhRLX (100 ng/ml) was measured after 72 hours of culture. […]

The test system is the same in experiment [4]. Put plainly: Collagen secretion into media by cardiac fibroblasts ([3H]-proline labelling). Conditions: 72 h. As for the experimental part: as §1
Atrial and ventricular fibroblasts were subjected to TGF-β or Ang II in the absence or presence of rhRLX over 3 days. For the TGF-β studies, cells were treated for 72 hours with rhRLX (100 ng/ml), TGF-β (1 or 2 ng/ml), or a combination of rhRLX (100 ng/ml) and TGF-β (2 ng/ml) in serum-free DMEM supplemented with lactalbumin hydrolysate. For the Ang II studies, fibroblasts were treated with Ang II (1×10^−7 M and 5×10^−7 M) or a combination of rhRLX (100 ng/ml) and Ang II (1 or 5×10^−7 M). TGF-B3 (1 ng/ml) alone induced an 85-95% increase in secretion of interstitial (types I and III) collagen into the cultured media.
For measurement of collagen synthesis, collagen was biosynthetically labelled with [^3H]-proline in the presence of ascorbate and β-aminopropionitrile, as previously described (Unemori et al, supra). For measurement of collagen deposition into the cell matrix, cell layers (per well) were isolated and hydrolyzed with 6 M hydrochloric acid for measurement of hydroxyproline content, as described previously (Samuel C S et al. (1996) Endocrinology 137:3884-3890; Gallop P M, Paz M A (1975) Physiol Rev 55:418487). […]

The subject of experiment [5] is α-SMA. Briefly: Fibroblast differentiation to myofibroblasts, Western blot of α-SMA. Conditions: TGF-β 2 ng/ml or Ang II 10^−7 M alone, 72 h, ventricular fibroblasts. The text has this:
In the normal heart, cardiac fibroblasts are relatively quiescent, but upon pathological stimuli to the heart they proliferate and differentiate into activated myofibroblasts. These myofibroblasts, the hallmarks of which are α-SMA expression and production of prodigious amounts of collagen, are important contributors to fibrosis and the pathology of the heart (Eghbali M (1998) Basic Res Cardiol 87(Suppl 2):183-189; Bouzegrhane F, Thibault G (2002) Cardiovasc Res 53:304-312). Ventricular fibroblast differentiation to myofibroblasts was analyzed by measuring α-SMA expression by ventricular fibroblasts. In all experiments, an equal amount of total protein (10 μg/sample) was analyzed. α-SMA was sized at 43 kDa under nonreducing conditions when detected with a monoclonal antibody. In some experiments, cells were either untreated or treated with TGF-β (2 ng/ml) alone or TGF-β (2 ng/ml) and rhRLX (100 ng/ml) for 72 hours. In other experiments, cells were either untreated or treated with Ang II (10^−7 M) alone or Ang II (10^−7 M) and rhRLX (100 ng/ml) for 72 hours.
Fibroblast differentiation into myofibroblasts was determined by α-SMA expression. […] Cell layers were trypsinized, and the protein was extracted using Trizol reagent (according to the manufacturer's instructions; Life Technologies, Gaithersburg, Md.) and analyzed by the Bio-Rad dye-binding protein assay (Bio-Rad, Richmond, Calif.). […]
A general note: Immunoblotting shows a protein as a band on a membrane.

The values that follow come from patent US20060264367A1, “Prevention of fibrosis following cardiac injury” (Howard Florey Institute, priority 2005, published 2006).

For the substance “IGF-I: growth factor that potently stimulates fibroblast proliferation”, the “increase in fibroblast proliferation” value in experiment [1] (IGF-I 0.1 μg/ml) is listed as 27-30%; in experiment [1] (IGF-I 0.5 μg/ml) it was 36-40%; in experiment [1] (IGF-I 1.0 μg/ml), 34-40%.
On to TGF-β, for which the MMP-2 expression entry in experiment [2] was “modest increase”. Further, the “up-regulation of collagen deposition into the matrix of fibroblasts” value in experiment [3] is listed as 65-85%. In addition, in experiment [4] (1 ng/ml alone), the “increase in secretion of interstitial (types I and III) collagen into the cultured media” value is given as 85-95%. For the same substance, the “increase in α-SMA expression” value in experiment [5] is 85-95%.
Regarding “angiotensin II (DRVYIHPF; Angiotensin-2; UniProt P01019 25-32, looked up) [Ang II, angiotensin II, profibrotic stimulus obtained from Sigma-Aldrich]”, the “up-regulation of collagen deposition into the matrix of fibroblasts” value in experiment [3] is on record as 20-50%. Besides, the “increase in atrial and ventricular fibroblast proliferation” value is 6473% in experiment [1] (Ang II 10^−7 M) and 63-75% in experiment [1] (Ang II 10^−8 M). Further, the entries for the “increase in collagen secretion” value in experiment [4] (Ang II 1×10^−7 M alone) and in experiment [4] (Ang II 5×10^−7 M alone) were 50-60% and 15-20%, respectively. The “increase in α-SMA expression” value in experiment [5] is given as 25-35%.
